From PubChem BioAssay (NCI)
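The compound was tested at five concentrations on cells cultured in 96-well plates, with a 48-hour exposure period. GI50 is the concentration that inhibits growth by half. The concentration for full growth arrest is given as TGI.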

Key:
Experiment in all cases: NCI-60 cell line screen, 48 h
[1] = system: HCT-116 colon
[2] = system: CAKI-1 renal
[3] = system: COLO 205 colon
[4] = system: HL-60(TB) leukemia
[5] = system: SK-OV-3 ovarian
[6] = system: SNB-75 CNS
[7] = system: OVCAR-8 ovarian
[8] = system: PC-3 prostate
[9] = system: NCI-H522 lung
[10] = system: TK-10 renal
[11] = system: SW-620 colon
[12] = system: OVCAR-5 ovarian
[13] = system: SK-MEL-5 melanoma
[14] = system: HS 578T breast
[15] = system: KM12 colon
[16] = system: SR leukemia
[17] = system: UACC-257 melanoma
[18] = system: MDA-MB-435
[19] = system: A498 renal
[20] = system: HOP-92 NSCLC
[21] = system: ACHN renal
[22] = system: HCT-15 colon
[23] = system: SF-268 CNS
[24] = system: BT-549 breast
[25] = system: MOLT-4 leukemia
[26] = system: SNB-19 CNS
[27] = system: SN12C renal
[28] = system: MDA-MB-231 breast
[29] = system: RPMI-8226 leukemia
[30] = system: K-562 leukemia
[31] = system: RXF 393 renal
[32] = system: U251 CNS
[33] = system: NCI-H226 lung
[34] = system: SF-295 CNS
[35] = system: DU-145 prostate
[36] = system: CCRF-CEM leukemia
[37] = system: MALME-3M melanoma
[38] = system: HOP-62 NSCLC
[39] = system: IGROV1 ovarian
[40] = system: MDA-MB-468 breast
[41] = system: OVCAR-3 ovarian
[42] = system: A549 NSCLC
[43] = system: M14 melanoma
[44] = system: EKVX NSCLC
[45] = system: T-47D breast
[46] = system: 786-0 renal
[47] = system: SF-539 CNS
[48] = system: HCC-2998 colon
[49] = system: SK-MEL-2 melanoma
[50] = system: NCI-H460 lung
[51] = system: UACC-62 melanoma
[52] = system: SK-MEL-28 melanoma
[53] = system: UO-31 renal
[54] = system: OVCAR-4 ovarian
[55] = system: HT29 colon
[56] = system: LOX IMVI melanoma
[57] = system: MCF7 breast
[58] = system: NCI-H23 lung

COC(=O)C[C@](O)(CCC(C)C)C(=O)O[C@@H]1C(OC)=C[C@]23CCCN2CCc2cc4c(cc2[C@H]13)OCO4
GI50 [1]: 36.3 nM
TGI [1]: 1050 nM
GI50 [2]: 179 nM
TGI [2]: 988 nM
GI50 [3]: 91.6 nM
TGI [3]: 397 nM
GI50 [4]: 14.3 nM
TGI [4]: 65.5 nM
GI50 [5]: 159 nM
TGI [5]: 1620 nM
GI50 [6]: 156 nM
TGI [6]: 417 nM
GI50 [7]: 130 nM
TGI [7]: 787 nM
GI50 [8]: 52.1 nM
TGI [8]: 756 nM
GI50 [9]: 21.2 nM
TGI [9]: 65.3 nM
GI50 [10]: 136 nM
TGI [10]: 1090 nM
GI50 [11]: 57.5 nM
TGI [11]: 473 nM
GI50 [12]: 170 nM
TGI [12]: 596 nM
GI50 [13]: 43.1 nM
TGI [13]: 181 nM
GI50 [14]: 138 nM
TGI [14]: 545 nM
GI50 [15]: 56.8 nM
TGI [15]: 546 nM
GI50 [16]: 18.2 nM
TGI [16]: 57.2 nM
GI50 [17]: 194 nM
TGI [17]: 810 nM
GI50 [18]: 101 nM
TGI [18]: 351 nM
GI50 [19]: 17.3 nM
TGI [19]: 163 nM
GI50 [20]: 208 nM
TGI [20]: 724 nM
GI50 [21]: 40.2 nM
TGI [21]: 272 nM
GI50 [22]: 36.4 nM
TGI [22]: 1270 nM
GI50 [23]: 192 nM
TGI [23]: 709 nM
GI50 [24]: 90.7 nM
TGI [24]: 412 nM
GI50 [25]: 20.2 nM
TGI [25]: 140 nM
GI50 [26]: 36 nM
TGI [26]: 305 nM
GI50 [27]: 259 nM
TGI [27]: 1110 nM
GI50 [28]: 247 nM
TGI [28]: 690 nM
GI50 [29]: 33.7 nM
TGI [29]: 132 nM
GI50 [30]: 28.9 nM
TGI [30]: 116 nM
GI50 [31]: 39.9 nM
TGI [31]: 285 nM
GI50 [32]: 39.2 nM
TGI [32]: 4020 nM
GI50 [33]: 31.7 nM
TGI [33]: 351 nM
GI50 [34]: 135 nM
TGI [34]: 662 nM
GI50 [35]: 145 nM
TGI [35]: 645 nM
GI50 [36]: 34.4 nM
TGI [36]: 431 nM
GI50 [37]: 20.1 nM
TGI [37]: 68.4 nM
GI50 [38]: 244 nM
TGI [38]: 1480 nM
GI50 [39]: 64.7 nM
TGI [39]: 525 nM
GI50 [40]: 25.5 nM
TGI [40]: 115 nM
GI50 [41]: 39 nM
TGI [41]: 306 nM
GI50 [42]: 52.1 nM
TGI [42]: 10700 nM
GI50 [43]: 50.4 nM
TGI [43]: 196 nM
GI50 [44]: 116 nM
TGI [44]: 775 nM
GI50 [45]: 191 nM
TGI [45]: 919 nM
GI50 [46]: 104 nM
TGI [46]: 544 nM
GI50 [47]: 23 nM
TGI [47]: 58 nM
GI50 [48]: 26.9 nM
TGI [48]: 129 nM
GI50 [49]: 216 nM
TGI [49]: 642 nM
GI50 [50]: 21.2 nM
TGI [50]: 82 nM
GI50 [51]: 144 nM
TGI [51]: 603 nM
GI50 [52]: 70.6 nM
TGI [52]: 352 nM
GI50 [53]: 49.8 nM
TGI [53]: 449 nM
GI50 [54]: 39.5 nM
TGI [54]: 354 nM

Clc1cccc(-c2ccc(OCCCN3CCN(c4ccncc4)CC3)cc2)c1
GI50 [1]: 1500 nM
TGI [1]: 3010 nM
GI50 [2]: 1670 nM
TGI [2]: 3330 nM
GI50 [3]: 1640 nM
TGI [3]: 3080 nM
GI50 [4]: 1700 nM
TGI [4]: 4480 nM
GI50 [5]: 2810 nM
TGI [5]: 10400 nM
GI50 [6]: 1870 nM
TGI [6]: 7270 nM
GI50 [7]: 2340 nM
TGI [7]: 5810 nM
GI50 [55]: 1550 nM
TGI [55]: 3180 nM
GI50 [8]: 1940 nM
TGI [8]: 6150 nM
GI50 [9]: 1870 nM
TGI [9]: 3790 nM
GI50 [10]: 2730 nM
TGI [10]: 8210 nM
GI50 [56]: 1620 nM
TGI [56]: 3030 nM
GI50 [11]: 1700 nM
TGI [11]: 3270 nM
GI50 [12]: 1930 nM
TGI [12]: 4350 nM
GI50 [13]: 1650 nM
TGI [13]: 3040 nM
GI50 [14]: 1960 nM
TGI [14]: 5110 nM
GI50 [15]: 1770 nM
TGI [15]: 3280 nM
GI50 [16]: 886 nM
TGI [16]: > 100000 nM
GI50 [17]: 2080 nM
TGI [17]: 4140 nM
GI50 [18]: 1700 nM
TGI [18]: 3160 nM
GI50 [19]: 5640 nM
TGI [19]: 19300 nM
GI50 [20]: 1280 nM
TGI [20]: 4280 nM
GI50 [21]: 1750 nM
TGI [21]: 3160 nM
GI50 [22]: 1230 nM
TGI [22]: 2550 nM
GI50 [23]: 2080 nM
TGI [23]: 4690 nM
GI50 [24]: 2500 nM
TGI [24]: 5920 nM
GI50 [25]: 2040 nM
TGI [25]: 4710 nM
GI50 [26]: 1940 nM
TGI [26]: 3980 nM
GI50 [27]: 1700 nM
TGI [27]: 3360 nM
GI50 [28]: 1570 nM
TGI [28]: 2980 nM
GI50 [29]: 1890 nM
TGI [29]: 4910 nM
GI50 [30]: 1630 nM
TGI [30]: 9430 nM
GI50 [31]: 1240 nM
TGI [31]: 2660 nM
GI50 [32]: 1570 nM
TGI [32]: 2990 nM
GI50 [33]: 3510 nM
TGI [33]: 15100 nM
GI50 [34]: 1750 nM
TGI [34]: 3240 nM
GI50 [35]: 2090 nM
TGI [35]: 4790 nM
GI50 [36]: 1490 nM
TGI [36]: 3880 nM
GI50 [37]: 1760 nM
TGI [37]: 3220 nM
GI50 [38]: 1670 nM
TGI [38]: 3120 nM
GI50 [39]: 1710 nM
TGI [39]: 3220 nM
GI50 [40]: 1660 nM
TGI [40]: 3260 nM
GI50 [41]: 1790 nM
TGI [41]: 3560 nM
GI50 [42]: 1710 nM
TGI [42]: 3260 nM
GI50 [57]: 1500 nM
TGI [57]: 3040 nM
GI50 [43]: 1760 nM
TGI [43]: 3260 nM
GI50 [44]: 1850 nM
TGI [44]: 4650 nM
GI50 [46]: 1700 nM
TGI [46]: 3070 nM
GI50 [47]: 1490 nM
TGI [47]: 2850 nM
GI50 [48]: 1820 nM
TGI [48]: 3250 nM
GI50 [58]: 2070 nM
TGI [58]: 5090 nM
GI50 [50]: 1740 nM
TGI [50]: 3310 nM
GI50 [51]: 1730 nM
TGI [51]: 3170 nM
GI50 [52]: 1820 nM
TGI [52]: 3520 nM
GI50 [53]: 1650 nM
TGI [53]: 3600 nM
GI50 [54]: 2600 nM
TGI [54]: 8320 nM
